1 molecule from patent publication US5705630A, “2'-methylidenepyrimidine nucleoside compounds” (Yoshitomi Pharmaceutical Industries, Ltd., priority 1988, dated 1998) can be followed below.

The series in a line: solubility (general statement). The following applies: with respect to pharmaceutical production. The class given is physicochemical.

For `C=C1[C@H](n2ccc(N)nc2=O)O[C@H](CO)[C@H]1O` [2'-deoxy-2'-methylidenecytidine], the solubility result is “inferior in solubility”.
